The experiment has as its target T1, yeast HSP90 (Saccharomyces cerevisiae, UniProt P02829).
T1 construct: made in house; host or cells: E. coli
The experiment is described as follows: Malachite green ATPase assay. It counts as biochemical. As to conditions: activity range. The text has this:
The intrinsic ATPase activity of HSP90 may be measured using yeast HSP90 as a model system. The assay, based on the use of malachite green for the measurement of inorganic phosphate, was used to test the HSP90 inhibitory activity of the compounds of the Examples herein.
Malachite Green ATPase Assay
Chemicals are of the highest purity commercially available and all aqueous solutions are made up in AR water. Because of the need to minimise contamination with inorganic phosphate, precautions should be taken with solutions and apparatus used in the assays. Glassware and pH meters are rinsed with double distilled or deionised water before use and, wherever possible, plastic ware should be used. Gloves are worn for all procedures. • (1) Greiner 384-well (Greiner 781101) or Costar 384-well flat-bottomed polystyrene multiwell plates (VWR). • (2) Assay buffer of (a) 100 mM Tris-HCl, pH 7.4, (b) 150 mM KCl, (c) 6 mM MgCl2. Stored at room temperature. • (3) 0.0812% (w/v) malachite green (M 9636, Sigma Aldrich Ltd., Poole, UK). Stored at room temperature. • (4) 2.32% (w/v) polyvinyl alcohol USP (P 1097, Sigma Aldrich Ltd, Poole, UK) in boiling water (see Comment 1), allowed to cool, and stored at room temperature. • (5) 5.72% (w/v) ammonium molybdate in 6 M hydrochloric acid. Stored at room temperature. • (6) 34% (w/v) sodium citrate. Stored at room temperature. • (7) 100 mM ATP, disodium salt, special quality (47699, Sigma Aldrich). Stored at −20° C. • (8) E. coli expressed yeast HSP90 protein, purified >95% (see, e.g., Panaretou et al., 1998) and stored in 50 uL aliquots at −80° C.
Method • 1. Dilute test compounds to 500 μM in AR water (DMSO concentration will be 2.5%). Transfer 2.5 μl of these compounds directly from the daughter plate to the assay plate, giving a final assay concentration of 100 μM. To obtain 12 point IC50 values, perform serial dilutions 1:2 to produce a range of assay concentrations from 100 μM to 97.6 nM (2.5% DMSO), and transfer 2.5 μl of each concentration into the assay plate. Column 1 in the assay plate contains no compound, as a negative control. An additional row with no compound is also used as a background. • 2. Prepare ATP by diluting 100 mM stock to 925 μM with assay buffer, and aliquot 5 μl of diluted ATP to each well including controls (final assay concentration 370 μM). • 3. Add 5 μl of buffer to background row. • 4. Dilute enzyme preparation to 1.05 μM with assay buffer, and aliquot 5 μl into each compound well and to the negative control column. • 5. Collect the reagents to the bottom of the well, cover plate with plate seal and incubate overnight at 37 degC. • 6. First thing in the morning prepare the Malachite Green Reagent. Add 2 parts of Malachite Green Solution, 1 part of Polyvinyl Alcohol Solution, 1 part of Ammonium Molybdate Solution, and 2 parts of AR water. • 7. Invert to mix, and leave for approximately 1 hour until the colour turns from brown to golden yellow. • 8. Add 40 μl of Malachite Green Reagent to each well, allow 5 mins for colour to develop. • 9. Add 5 μl of Sodium Citrate Reagent to each well (see comment 2) • 10. Re-cover with plate seal and shake on plate shaker for at least 15 mins. • 11. Measure Absorbance at 620 nm using a suitable plate reader (e.g. Victor, Perkin Elmer Life Sciences, Milton Keynes, UK).
Comments • (1) The polyvinyl alcohol dissolves in boiling water with difficulty and stirring for 2-3 h is required. • (2) The time interval between addition of the malachite green reagent and the sodium citrate should be kept as short as possible in order to reduce the non-enzymatic hydrolysis of ATP. Once the sodium citrate is added, the colour is stable for up to 4 h at room temperature. • (3) Compounds can be added to the assay plates using a Biomek FX Robot (Beckman Coulter).
T1 sequence (P02829 whole entry): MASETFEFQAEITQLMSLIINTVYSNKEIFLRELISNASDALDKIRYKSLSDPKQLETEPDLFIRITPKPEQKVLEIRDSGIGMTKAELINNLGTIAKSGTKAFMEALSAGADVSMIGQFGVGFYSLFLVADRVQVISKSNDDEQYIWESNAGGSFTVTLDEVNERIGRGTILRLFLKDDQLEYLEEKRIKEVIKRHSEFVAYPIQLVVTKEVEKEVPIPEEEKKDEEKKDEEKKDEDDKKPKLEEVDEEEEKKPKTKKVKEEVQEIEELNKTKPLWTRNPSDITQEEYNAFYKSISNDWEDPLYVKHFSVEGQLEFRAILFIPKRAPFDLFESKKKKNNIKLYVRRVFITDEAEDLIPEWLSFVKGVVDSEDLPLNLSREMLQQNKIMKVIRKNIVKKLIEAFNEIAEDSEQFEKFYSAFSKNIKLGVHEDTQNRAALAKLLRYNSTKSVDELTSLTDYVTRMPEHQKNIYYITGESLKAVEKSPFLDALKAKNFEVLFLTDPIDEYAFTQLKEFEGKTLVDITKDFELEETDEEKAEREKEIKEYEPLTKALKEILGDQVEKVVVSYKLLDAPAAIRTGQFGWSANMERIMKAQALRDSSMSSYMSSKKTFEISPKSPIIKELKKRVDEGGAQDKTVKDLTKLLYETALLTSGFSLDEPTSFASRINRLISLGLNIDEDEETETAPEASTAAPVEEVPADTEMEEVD
As usually defined, the IC50 is the concentration that gives 50% inhibition. High values mean lower potency, low ones higher potency. With `Oc1cc(O)c(-c2n[nH]cc2N2CCN(CCc3ccccc3)CC2)cc1Cl` [Example 34], the 50% inhibitory concentration (IC50) is below 50 µM.
For `N#Cc1ccccc1CN1CCN(c2c[nH]nc2-c2cc(Cl)c(O)cc2O)CC1` [Example 23], the IC50 is below 50 µM.
In the case of `CCn1cc(N2CCNCC2)c(-c2cc(Br)c(O)cc2O)n1` [Example 59], the concentration for half-maximal inhibition (IC50) is above 50 µM.
In turn, `CCNC1CCN(c2c[nH]nc2-c2cc(Br)c(O)cc2O)CC1` [Example 97] gave a concentration for half-maximal inhibition (IC50) below 50 µM.
The value for `Cc1ccc(C)c(CCc2cc(-c3n[nH]cc3N3CCNCC3)c(O)cc2O)c1` [Example 74] was below 50 µM; that for `Cn1cc(N2CCNCC2)c(-c2cc(Br)c(O)cc2O)n1` [Example 57] was above 50 µM.
On to `OCCCN1CCN(c2c[nH]nc2-c2cc(Cl)c(O)cc2O)CC1` [Example 30], for which the concentration for half-maximal inhibition (IC50) is below 50 µM.
`O=[N+]([O-])c1ccc(CNC2CCN(c3c[nH]nc3-c3cc(Br)c(O)cc3O)CC2)cc1` [Example 84] gave an IC50 below 50 µM.
For the compound `Oc1cc(O)c(-c2n[nH]cc2N2CCC(NCc3ccc(F)cc3)CC2)cc1Br` [Example 80], the IC50 is below 50 µM.
Then `CCOC(=O)Cn1cc(N2CCNCC2)c(-c2cc(Br)c(O)cc2O)n1` [Example 64], with above 50 µM; and `Oc1cc(O)c(-c2c(N3CCNCC3)cnn2Cc2ccccc2)cc1Br` [Example 62], with above 50 µM.
Compound `O=C(O)c1cccc(CN2CCN(c3c[nH]nc3-c3cc(Cl)c(O)cc3O)CC2)c1` [Example 29] yielded a 50% inhibitory concentration (IC50) below 50 µM.
`CC(C)n1ncc(N2CCNCC2)c1-c1cc(Br)c(O)cc1O` [Example 60]: the IC50 is above 50 µM.
For `Oc1cc(O)c(-c2n[nH]cc2N2CCNCC2)cc1CCc1cccc2c1OCO2` [Example 66], the 50% inhibitory concentration (IC50) is below 50 µM.
Then `NC(=O)c1ccc(CN2CCN(c3c[nH]nc3-c3cc(Cl)c(O)cc3O)CC2)cc1` [Example 36], with below 50 µM; and `NS(=O)(=O)c1ccc(CNC2CCN(c3c[nH]nc3-c3cc(Br)c(O)cc3O)CC2)cc1` [Example 86], with below 50 µM.
`Cc1ccccc1CCc1cc(-c2n[nH]cc2N2CCNCC2)c(O)cc1O` [Example 75] gave an IC50 below 50 µM.
Regarding `Cc1ccc(CCc2cc(-c3n[nH]cc3N3CCNCC3)c(O)cc2O)cc1` [Example 72], the concentration for half-maximal inhibition (IC50) was below 50 µM.
On to `N#CCCCN1CCN(c2c[nH]nc2-c2cc(Cl)c(O)cc2O)CC1` [Example 13], for which the IC50 was below 50 µM.
Then `Oc1cc(O)c(-c2n[nH]cc2N2CCC(NCc3ccc(Cl)cc3)CC2)cc1Br` [Example 82], with below 50 µM; and `COC(=O)c1cccc(CN2CCN(c3c[nH]nc3-c3cc(Cl)c(O)cc3O)CC2)c1` [Example 16], with below 50 µM; and `NNC(=O)CN1CCN(c2c[nH]nc2-c2cc(Cl)c(O)cc2O)CC1` [Example 8, {4-[3-(5-Chloro-2,4-dihydroxy-phenyl)-1H-pyrazol-4-yl]-piperazin-1-yl}-acetic acid hydrazide], with above 50 µM.
`Oc1cc(O)c(-c2nn(Cc3ccccc3)cc2N2CCNCC2)cc1Br` [Example 63] yielded an IC50 above 50 µM.
`CN1CCN(c2c[nH]nc2-c2cc(Cl)c(O)cc2O)CC1` [Example 4] gave an IC50 below 50 µM.
Then `Cc1cc(NC(=O)c2ccc(CN3CCN(c4c[nH]nc4-c4cc(Cl)c(O)cc4O)CC3)cc2)no1` [Example 37], with below 50 µM.
In the case of `N#Cc1cccc(CN2CCN(c3c[nH]nc3-c3cc(Cl)c(O)cc3O)CC2)c1` [Example 19], the concentration for half-maximal inhibition (IC50) was below 50 µM.
The value for `CC(C)(C)OC(=O)CN1CCN(c2c[nH]nc2-c2cc(Cl)c(O)cc2O)CC1` [Example 41] was above 50 µM; that for `COC(=O)c1ccc(CN2CCN(c3c[nH]nc3-c3cc(Cl)c(O)cc3O)CC2)cc1` [Example 21] was below 50 µM; that for `Oc1cc(O)c(-c2n[nH]cc2N2CCNCC2)cc1CCc1ccc2c(c1)OCO2` [Example 65] was below 50 µM.
With `N#CCN1CCN(c2c[nH]nc2-c2cc(Cl)c(O)cc2O)CC1` [Example 10], the half-inhibitory concentration (IC50) was above 50 µM.
Compound `Oc1cc(O)c(-c2n[nH]cc2N2CCNCC2)cc1Br` [Example 55] displayed an IC50 above 50 µM.
`Oc1cc(O)c(-c2n[nH]cc2N2CCN(Cc3cccnc3)CC2)cc1Cl` [Example 7]: the IC50 was below 50 µM.
For the compound `Oc1cc(O)c(-c2n[nH]cc2N2CCNCC2)cc1CCc1ccccc1F` [Example 68], the half-inhibitory concentration (IC50) is below 50 µM.
Consider `Cc1ccc(CCc2cc(-c3n[nH]cc3N3CCNCC3)c(O)cc2O)c(C)c1` [Example 73], for which the IC50 is below 50 µM.
With `CC(c1ccccc1)N1CCN(c2c[nH]nc2-c2cc(Cl)c(O)cc2O)CC1` (stereo not drawn) [Example 43], the concentration for half-maximal inhibition (IC50) was below 50 µM.
`O=C(O)c1ccc(CN2CCN(c3c[nH]nc3-c3cc(Cl)c(O)cc3O)CC2)cc1` [Example 35] displayed an IC50 below 50 µM.
The compound `C#CC[N+]1(CC#C)CCN(c2c[nH]nc2-c2cc(Cl)c(O)cc2O)CC1` [Example 27] had an IC50 below 50 µM.
The value for `Oc1cc(F)ccc1-c1n[nH]cc1N1CCNCC1` [Example 52, 3-(4-Fluoro-2-hydroxyphenyl)-4-(piperazin-1-yl)-1H-pyrazole] was above 50 µM.
The value for `Oc1cc(O)c(-c2n[nH]cc2N2CCOCC2)cc1Cl` [Example 3] was above 50 µM; that for `NC(=O)CN1CCN(c2c[nH]nc2-c2cc(Cl)c(O)cc2O)CC1` [Example 20] was below 50 µM.
In turn, `CCN1CCN(c2c[nH]nc2-c2cc(Cl)c(O)cc2O)CC1` [Example 6] yielded a concentration for half-maximal inhibition (IC50) below 50 µM.
Compound `OCCNC1CCN(c2c[nH]nc2-c2cc(Br)c(O)cc2O)CC1` [Example 98] showed an IC50 below 50 µM.
For `Oc1cc(O)c(-c2n[nH]cc2N2CCN(Cc3ncon3)CC2)cc1Cl` [Example 17], the half-maximal inhibitory concentration (IC50) is below 50 µM.
Compound `O=C(CN1CCN(c2c[nH]nc2-c2cc(Cl)c(O)cc2O)CC1)N1CCOCC1` [Example 40] showed an IC50 below 50 µM.
Turning to `OCCN1CCN(c2c[nH]nc2-c2cc(Cl)c(O)cc2O)CC1` [Example 9, 4-Chloro-6-{4-[4-(2-hydroxy-ethyl)-piperazin-1-yl]-1H-pyrazol-3-yl}-benzene-1,3-diol], the IC50 is above 50 µM.
For `N#Cc1ccc(CN2CCN(c3c[nH]nc3-c3cc(Cl)c(O)cc3O)CC2)cc1` [Example 22], the IC50 is below 50 µM.
Then `Oc1cc(O)c(-c2n[nH]cc2N2CCN(Cc3ccco3)CC2)cc1Cl` [Example 5, 4-Chloro-6-[4-(4-furan-2-ylmethyl-piperazin-1-yl)-1H-pyrazol-3-yl]-benzene-1,3-diol], with above 50 µM; and `NC(=O)c1cccc(CN2CCN(c3c[nH]nc3-c3cc(Cl)c(O)cc3O)CC2)c1` [Example 25], with below 50 µM; and `Oc1cc(O)c(-c2n[nH]cc2N2CCNCC2)cc1CCc1cccc(F)c1` [Example 69], with below 50 µM.
The compound `Oc1cc(O)c(-c2n[nH]cc2N2CCC(NCc3ccccc3)CC2)cc1Br` [Example 79] returned a concentration for half-maximal inhibition (IC50) below 50 µM.
Take `Cn1c(CN2CCN(c3c[nH]nc3-c3cc(Cl)c(O)cc3O)CC2)nc2ccccc21` [Example 33]: the IC50 was above 50 µM.
Then `Oc1cc(O)c(-c2n[nH]cc2N2CCN(Cc3ccc(Cl)cc3)CC2)cc1Cl` [Example 18], with below 50 µM; and `COc1ccc(CN2CCN(c3c[nH]nc3-c3cc(Cl)c(O)cc3O)CC2)cc1` [Example 26], with below 50 µM.
Compound `CC(C)(C)OC(=O)N1CCN(c2c[nH]nc2-c2cc(Cl)c(O)cc2O)CC1` [Example 1, 4-[3-(5-Chloro-2,4-dihydroxy-phenyl)-1H-pyrazol-4-yl]-piperazine-1-carboxylic acid tert-butyl ester] returned an IC50 above 50 µM.
